The values below come from patent US20200341000A1, “METHOD OF SCREENING COMPOUNDS FOR TREATING CNS DISORDERS” (SAGE THERAPEUTICS, INC., priority 2017, published 2020).

The target of experiment [1] is T1, α1β2γ2 GABAA receptors (Homo sapiens, UniProt P14867+P18507+P47870).
T1 construct: expressed in transfected cells
Description: Whole-cell patch clamp, potentiation of GABA EC20 currents at recombinant synaptic-type receptors (LTK cells). It counts as cell-based. Conditions: n = 3. As to the method: Cellular electrophysiology was used to measure the pharmacological properties of ALLO, ganaxolone and SGE-516 in heterologous cell systems. Compounds were tested for their ability to affect GABA mediated currents at a submaximal agonist dose (GABA EC20=2 μM).
LTK cells were stably transfected with the α1β2γ2 subunits of the GABA receptor and CHO cells are transiently transfected with the α4β3γ subunits via the Lipofecatamine method. Cells were passaged at a confluence of about 50-80% and then seeded onto 35 mm sterile culture dishes containing 2 ml culture complete medium without antibiotics or antimycotics. Cells were cultivated at a density that enabled the recording of single cells without visible connections to other cells.
Whole-cell currents were measured with HEKA EPC-10 amplifiers using PatchMaster software. Bath solution for all experiments contained (in mM): NaCl 137, KCl 4, CaCl2 1.8, MgCl2 1, HEPES 10, D-Glucose 10, pH 7.4 with NaOH. Intracellular (pipette) solution contained (in mM): KCl 130, MgCl2 1, Mg-ATP 5, HEPES 10, EGTA 5, pH 7.2 with KOH. During experiments, cells and solutions were maintained at room temperature (19° C.-30° C.). For manual patchclamp recordings, cell culture dishes were placed on the dish holder of the microscope and continuously perfused (1 ml/min) with bath solution. After formation of a Gigaohm seal between the patch electrode and the cell (pipette resistance range: 2.5 MΩ-6.0MΩ; seal resistance range: >1 GΩ) the cell membrane across the pipette tip was ruptured to assure electrical access to the cell interior (whole-cell patch configuration).
Cells were voltage-clamped at a holding potential of −80 mV. GABAA receptors were activated by 2 μM GABA and compounds were sequentially applied at increasing concentrations for 30 s prior to a 2 s application of GABA. GABA and compounds were applied to cells via the Dynaflow perfusion system (Cellectricon, Sweden). Test compounds were dissolved in DMSO to form 10 mM stock solution and serially diluted to 0.01, 0.1, 1, and 10 μM in bath solution. […] All concentrations of test compound were tested on each cell. The relative percentage potentiation was defined as the peak amplitude in response to GABA EC20 in the presence of test compound divided by the peak amplitude in response to GABA EC20 alone, multiplied by 100.
ALLO and ganaxolone are known PAMs of both synaptic and extrasynaptic GABAAR-mediated currents. […] The α1β2γ2 or α4β3δ subunit combinations were chosen as representatives of typical synaptic and extrasynaptic GABAA receptors respectively.
(Patch clamp records ionic current or voltage across a cell membrane.)

For experiment [2], the system named is tonic current in dentate gyms granule cells (DGGCs). Kind of experiment: Acute (allosteric) modulation of tonic current in DGGCs of hippocampal slices. Type of experiment: cell-based, mice. To be noted: 100 nM, 10 min acute exposure, then 100 μM picrotoxin; mean±SEM. As to the method:
Brain slices were prepared from 3- to 5-week-old male C57 mice. Mice were anesthetized with isoflurane, decapitated, and brains were rapidly removed and submerged in ice-cold cutting solution containing (mM): 126 NaCl, 2.5 KCl, 0.5 CaCl2, 2 MgCl2, 26 NaHCO3, 1.25 NaH2PO4, 10 glucose, 1.5 sodium pyruvate, and 3 kynurenic acid. Coronal 310 μm thick slices were cut with the vibratome VT1000S (Leica Microsystems, St Louis, Mo., USA). The slices were then transferred into incubation chamber filled with prewarmed (31-32° C.) oxygenated artificial cerebro-spinal fluid (ACSF) of the following composition (in mM): 126 NaCl, 2.5 KCl, 2 CaCl2, 2 MgCl2, 26 NaHCO3, 1.25 NaH2PO4, 10 glucose, 1.5 sodium pyruvate, 1 glutamine, 3 kynurenic acid and 0.005 GABA bubbled with 95% O2-5% CO2. Slices were allowed to recover at 32° C. for at least 1 hr before recording. Exogenous GABA was added in an attempt to standardize ambient GABA in the slice and provide an agonist source for newly inserted extrasynaptic GABAARs. […]
Whole-cell currents were recorded from the dentate gyms granule cells (DGGCs) in 310-μm-thick coronal hippocampal slices. […] A 5 min period for stabilization after obtaining the whole-cell recording conformation (holding potential of −60 mV) was allowed before currents were recorded using an Axopatch 200B amplifier (Molecular Devices), low-pass filtered at 2 kHz, digitized at 20 kHz (Digidata 1440A; Molecular Devices), and stored for offline analysis.
For tonic current measurements, an all-points histogram was plotted for a 10 s period before and during 100 μM picrotoxin application, once the response reached a plateau level. […] Series resistance and whole-cell capacitance were continually monitored and compensated throughout the course of the experiment. […] Spontaneous inhibitory post-synaptic currents (sIPSCs) were analyzed using the mini-analysis software (version 5.6.4; Synaptosoft, Decatur, Ga.). […] Only recordings with a minimum of 200 events fitting these criteria were analyzed. sIPSCs amplitude, and frequency from each experimental condition was pooled and expressed as mean±SEM. […]

For experiment [3], the system named is sIPSCs in dentate gyms granule cells (DGGCs). Description: Acute (allosteric) modulation of sIPSCs in DGGCs of hippocampal slices. To be noted: for mean sIPSC amplitude before versus during exposure / mean sIPSC decay time in the presence of compound: 100 nM; for sIPSC Amplitude / sIPSC Decay / sIPSC Frequency: 100 nM acute exposure, n = 5 to 7 neurons. It counts as cell-based, mice. As to the method:
Brain slices were prepared from 3- to 5-week-old male C57 mice. Mice were anesthetized with isoflurane, decapitated, and brains were rapidly removed and submerged in ice-cold cutting solution containing (mM): 126 NaCl, 2.5 KCl, 0.5 CaCl2, 2 MgCl2, 26 NaHCO3, 1.25 NaH2PO4, 10 glucose, 1.5 sodium pyruvate, and 3 kynurenic acid. Coronal 310 μm thick slices were cut with the vibratome VT1000S (Leica Microsystems, St Louis, Mo., USA). The slices were then transferred into incubation chamber filled with prewarmed (31-32° C.) oxygenated artificial cerebro-spinal fluid (ACSF) of the following composition (in mM): 126 NaCl, 2.5 KCl, 2 CaCl2, 2 MgCl2, 26 NaHCO3, 1.25 NaH2PO4, 10 glucose, 1.5 sodium pyruvate, 1 glutamine, 3 kynurenic acid and 0.005 GABA bubbled with 95% O2-5% CO2. Slices were allowed to recover at 32° C. for at least 1 hr before recording. Exogenous GABA was added in an attempt to standardize ambient GABA in the slice and provide an agonist source for newly inserted extrasynaptic GABAARs.
After recovery, a single slice was transferred to a submerged, dual perfusion recording chamber (Warner Instruments, Hamden, Conn., USA) on the stage of an upright microscope (Nikon FN-1) with a 40× water immersion objective equipped with DIC/IR optics. Slices were maintained at 32° C. and gravity-superfused with ACSF solution throughout experimentation and perfused at rate of 2 ml/min with oxygenated (O2/CO2 95/5%) ACSF.
Whole-cell currents were recorded from the dentate gyms granule cells (DGGCs) in 310-μm-thick coronal hippocampal slices. Patch pipettes (5-7MΩ) were pulled from borosilicate glass (World Precision Instruments) and filled with intracellular solution of the composition (in mM) as follows: 140 CsCl, 1 MgCl2, 0.1 EGTA, 10 HEPES, 2 Mg-ATP, 4 NaCl and 0.3 Na-GTP (pH=7.2 with CsOH). A 5 min period for stabilization after obtaining the whole-cell recording conformation (holding potential of −60 mV) was allowed before currents were recorded using an Axopatch 200B amplifier (Molecular Devices), low-pass filtered at 2 kHz, digitized at 20 kHz (Digidata 1440A; Molecular Devices), and stored for offline analysis.
For tonic current measurements, an all-points histogram was plotted for a 10 s period before and during 100 μM picrotoxin application, once the response reached a plateau level. Recordings with unstable baselines were discarded. Fitting the histogram with a Gaussian distribution gave the mean baseline current amplitude and the difference between the amplitudes before and during picrotoxin was considered to be the tonic current. The negative section of the all-points histogram which corresponds to the inward IPSCs was not fitted with a Gaussian distribution (Kretschmannova et al., 2013; Nusser and Mody, 2002). Series resistance and whole-cell capacitance were continually monitored and compensated throughout the course of the experiment. Recordings were eliminated from data analysis if series resistance increased by >20%. Spontaneous inhibitory post-synaptic currents (sIPSCs) were analyzed using the mini-analysis software (version 5.6.4; Synaptosoft, Decatur, Ga.). Minimum threshold detection was set to 3 times the value of baseline noise signal. To assess sIPSC kinetics, the recording trace was visually inspected and only events with a stable baseline, sharp rising phase, and single peak were used to negate artifacts due to event summation. Only recordings with a minimum of 200 events fitting these criteria were analyzed. sIPSCs amplitude, and frequency from each experimental condition was pooled and expressed as mean±SEM. To measure sIPSC decay, 100 consecutive events were averaged and the decay was fitted to a double exponential and the weighted decay constant (tw) was determined. Statistical analysis was performed by using Student t-test (paired and unpaired where appropriate), where p<0.05 is considered significant.

Setting [4] is: relative percentage potentiation of GABA EC20 peak current.

Read-outs that look alike come from different tables or passages of the source. Marks after values point to notes of the source that are not given here.

T1 sequence (P14867 28-456): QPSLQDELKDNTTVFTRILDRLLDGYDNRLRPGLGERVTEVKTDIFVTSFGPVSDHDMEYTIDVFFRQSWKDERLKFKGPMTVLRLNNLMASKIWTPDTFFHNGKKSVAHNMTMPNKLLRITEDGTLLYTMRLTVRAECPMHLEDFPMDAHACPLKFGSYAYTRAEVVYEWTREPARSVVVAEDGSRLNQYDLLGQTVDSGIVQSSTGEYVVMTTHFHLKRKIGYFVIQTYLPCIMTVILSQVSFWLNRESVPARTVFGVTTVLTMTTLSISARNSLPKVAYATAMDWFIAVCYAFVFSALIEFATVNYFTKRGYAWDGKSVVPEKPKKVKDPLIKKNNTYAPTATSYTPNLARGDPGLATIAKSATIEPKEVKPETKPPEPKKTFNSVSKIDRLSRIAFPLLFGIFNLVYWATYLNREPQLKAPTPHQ
T1 sequence (P47870 25-512 limits assumed): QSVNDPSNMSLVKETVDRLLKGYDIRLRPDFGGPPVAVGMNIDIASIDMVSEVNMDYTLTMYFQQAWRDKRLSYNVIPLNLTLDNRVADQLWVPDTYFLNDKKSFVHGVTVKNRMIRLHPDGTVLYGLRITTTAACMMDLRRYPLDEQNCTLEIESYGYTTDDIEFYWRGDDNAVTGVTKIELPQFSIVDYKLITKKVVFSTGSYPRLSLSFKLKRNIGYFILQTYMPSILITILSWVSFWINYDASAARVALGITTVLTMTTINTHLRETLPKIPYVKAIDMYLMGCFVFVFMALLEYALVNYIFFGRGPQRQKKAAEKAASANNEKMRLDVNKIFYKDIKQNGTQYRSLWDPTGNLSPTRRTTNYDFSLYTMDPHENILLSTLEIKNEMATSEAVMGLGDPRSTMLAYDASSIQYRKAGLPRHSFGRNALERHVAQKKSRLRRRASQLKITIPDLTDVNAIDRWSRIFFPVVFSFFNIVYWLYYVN
T1 sequence (P18507 40-475): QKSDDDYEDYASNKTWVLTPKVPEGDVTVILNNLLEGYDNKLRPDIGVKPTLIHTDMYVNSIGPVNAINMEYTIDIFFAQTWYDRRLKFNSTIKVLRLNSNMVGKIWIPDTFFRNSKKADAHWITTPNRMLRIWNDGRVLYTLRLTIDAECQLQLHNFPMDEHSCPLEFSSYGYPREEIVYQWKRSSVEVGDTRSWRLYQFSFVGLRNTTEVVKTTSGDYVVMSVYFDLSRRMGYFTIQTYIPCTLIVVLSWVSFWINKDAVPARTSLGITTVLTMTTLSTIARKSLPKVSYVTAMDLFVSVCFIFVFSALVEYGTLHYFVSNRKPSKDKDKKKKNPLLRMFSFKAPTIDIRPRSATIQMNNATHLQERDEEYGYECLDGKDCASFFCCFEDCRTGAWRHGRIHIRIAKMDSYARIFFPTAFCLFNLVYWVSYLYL

In general, EC50 refers to the midpoint of the concentration-response curve. As for `C[C@@]1(O)CC[C@H]2[C@H](CC[C@@H]3[C@@H]2CC[C@]2(C)[C@@H](C(=O)Cn4nccn4)CC[C@@H]32)C1` [SGE-516], in experiment [1] (GABA EC20 (2 μM)), the “pEC50 ± S.E.M., α1β2γ2” value is listed as 7.2 ± 0.3. In addition, the EC50 in experiment [1] (GABA EC20 (2 μM), read-out: EC50, potentiation of GABA current, α1β2γ2) amounted to 61 nM. For the same molecule, the “Emax ± S.E.M., α1β2γ2” value in experiment [1] (setting [4]) is recorded as 219%. Further, in experiment [2], the “tonic current during acute exposure” value is 49.2±8.9 pA. Also, in experiment [3], the “mean sIPSC amplitude before versus during exposure” value was “no significant difference”, the “mean sIPSC decay time in the presence of compound” value is recorded as “significantly increased”, the “sIPSC Amplitude” value came to 52.9 ± 0.7 pA and the “sIPSC Decay” value was 15.1 ± 0.8^b ms. The “sIPSC Frequency” value in experiment [3] was determined as 4.6 ± 0.6 Hz.
The term Emax denotes the size of the effect at its maximum, as opposed to the concentration needed. In the case of `CC(=O)[C@H]1CC[C@H]2[C@@H]3CC[C@H]4C[C@H](O)CC[C@]4(C)[C@H]3CC[C@]12C` [ALLO, Allopregnanolone], the EC50 in experiment [1] (EC50, potentiation of GABA current, α1β2γ2, GABA EC20 (2 μM)) amounted to 115 nM. In addition, the Emax in experiment [1] (LTK, relative percentage potentiation of GABA EC20 peak current, read-out: Emax ± S.E.M., α1β2γ2) is 229%. Besides, the “Emax ± S.E.M., α1β2γ2” value in experiment [1] (setting [4]) stood at 229 ± 19%. Further, in experiment [2], the “tonic current during acute exposure” value is given as 58.3±13.0 pA. Also, in experiment [3], the “mean sIPSC amplitude before versus during exposure” value is given as “no significant difference”, the “mean sIPSC decay time in the presence of compound” value is reported as “significantly increased”, the “sIPSC Amplitude” value came out at 59.1 ± 0.6 pA and the “sIPSC Decay” value is given as 19.2 ± 1.3^a ms. In addition, the “sIPSC Frequency” value in experiment [3] was found to be 3.4 ± 1.0 Hz.
